# Source: patent publication US7205403B2, “8-Heteroaryl xanthine adenosine A2B receptor antagonists” (King Pharmaceuticals Research and Development, Inc., priority 2002, dated 2007)
# Tests used:
# [1] = target: T1, human A2B adenosine receptor (Homo sapiens, UniProt P29275); experiment: [3H]DPCPX binding to human A2B receptors expressed in HEK293 cells; design: host or cells: HEK 293 cells (membranes); details: geometric mean (95% confidence interval); >1000 = no appreciable binding; read-out: Ki, [3H]DPCPX binding to human A2B receptors expressed in HEK293 cells
# T1 sequence (P29275 1-332): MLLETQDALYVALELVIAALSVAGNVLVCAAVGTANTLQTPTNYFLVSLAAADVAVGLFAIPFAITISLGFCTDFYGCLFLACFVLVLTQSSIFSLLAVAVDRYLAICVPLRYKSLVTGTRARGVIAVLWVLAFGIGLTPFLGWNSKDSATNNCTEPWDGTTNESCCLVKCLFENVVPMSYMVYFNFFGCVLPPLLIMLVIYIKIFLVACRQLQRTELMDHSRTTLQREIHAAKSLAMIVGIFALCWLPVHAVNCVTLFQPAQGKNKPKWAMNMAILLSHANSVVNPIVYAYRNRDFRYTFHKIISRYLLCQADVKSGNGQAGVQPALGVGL
# Experimental: HEK 293 cells transfected with the human recombinant A2B adenosine receptor were obtained from Receptor Biology, Inc. (Beltsville, Md. USA).
# Binding of 1 [^3H]-DPCPX to HEK 293 cells transfected with the human recombinant A2B adenosine receptors was performed according to the method described by Varani et al., 2000. In particular, assays were carried out for 60 minutes at 25° C. in 100 μl of […] Tris HCl buffer, […] MgCl2, 1 mM EDTA, 0.1 mM benzamidine pH 7.4, 2 IU/ml adenosine deaminase containing 40 nM [^3H]-DPCPX, diluted membranes (20 μg of protein/assay) and at least 6–8 different concentration of tested compounds.
# (§1) The filter bound radioactivity was counted on Top Count (efficiency 57%) with Micro-Scint 20.
# (§2) The filter bound radioactivity was counted on a Top Count brand Microplate Scintillation Counter (efficiency 57%) with Micro-Scint 20. […] Inhibitory binding constant. […] Results and Discussion
# [2] = target: T2, human A2A adenosine receptor (Homo sapiens, UniProt P29274); experiment: [3H]ZM241385 binding to human A2A receptors expressed in CHO cells; details: read-out: Ki, [3H]ZM241385 binding to human A2A receptors expressed in CHO cells
# T2 construct: expressed in transfected cells; host or cells: CHO cells (membranes)
# Experimental: (§3) The cells were grown adherently and maintained in Dulbecco's modified Eagle's medium with nutrient mixture F12 without nucleosides at 37° C. in 5% CO2/95% air. The cells were washed with phosphate-buffered saline and scraped off flasks in ice cold hypotonic buffer ([…] Tris HCl, 2 mM EDTA, pH 7.4). The cell suspension was homogenized with a Polytron and the homogenate was centrifuged for 30 minutes at 48,000 g. The resultant membrane pellet was re-suspended in 50 mM Tris HCl buffer at pH 7.4 for A1 adenosine receptors; in 50 mM Tris HCl 10 mM MgCl, at pH 7.4 for A2A adenosine receptors; in 50 mM Tris HCl, 10 mM MgCl2, 1 mM EDTA, at pH 7.4 for A3 adenosine receptors and were utilized for binding assays.
# as §1, §2
# [3] = target: T3, human A3 adenosine receptor (Homo sapiens, UniProt P0DMS8); experiment: [3H]MRE3008F20 binding to human A3 receptors expressed in CHO cells
# T3 construct: expressed in transfected cells; host or cells: CHO cells (membranes)
# T3 sequence (P0DMS8 1-318): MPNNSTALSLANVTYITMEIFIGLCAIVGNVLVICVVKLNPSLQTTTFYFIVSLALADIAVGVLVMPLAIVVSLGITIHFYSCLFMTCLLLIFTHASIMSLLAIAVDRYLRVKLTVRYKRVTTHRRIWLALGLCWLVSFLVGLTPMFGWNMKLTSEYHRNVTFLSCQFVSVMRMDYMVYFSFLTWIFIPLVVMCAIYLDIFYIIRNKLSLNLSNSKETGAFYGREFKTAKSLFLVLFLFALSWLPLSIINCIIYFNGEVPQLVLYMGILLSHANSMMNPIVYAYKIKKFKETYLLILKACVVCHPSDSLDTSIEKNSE
# Experimental: as §3
# Binding of [^3H]-MRE3008-F20 to CHO cells transfected with the human recombinant A3 adenosine receptors was performed according to Varani et al., 2000. Competition experiments were carried out in duplicate in a final volume of 250 μl in test tubes containing 1 nM [^3H]-MRE3008-F20, 50 mM Tris HCl buffer, […] MgCl2, pH 7.4 and 100 μl of diluted membranes (50 μg of protein/assay) and at least 6–8 different concentrations of examined ligands for 120 minutes at 4° C.
# as §1, §2
# T2 sequence (P29274 whole entry): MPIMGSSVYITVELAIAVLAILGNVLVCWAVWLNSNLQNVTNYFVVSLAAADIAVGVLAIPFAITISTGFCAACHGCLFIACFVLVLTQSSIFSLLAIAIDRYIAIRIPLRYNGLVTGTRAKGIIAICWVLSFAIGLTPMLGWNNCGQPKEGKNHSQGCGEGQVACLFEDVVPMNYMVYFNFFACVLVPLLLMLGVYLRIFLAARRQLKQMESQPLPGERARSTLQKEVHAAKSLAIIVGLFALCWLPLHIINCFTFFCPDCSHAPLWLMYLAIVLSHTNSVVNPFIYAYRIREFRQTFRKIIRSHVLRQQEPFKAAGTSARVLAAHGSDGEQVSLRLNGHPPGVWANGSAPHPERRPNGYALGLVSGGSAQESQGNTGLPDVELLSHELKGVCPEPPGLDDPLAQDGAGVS
Ki [1] [µM],Ki [2] [µM],Ki [3] [µM],SMILES
> 1,> 1,> 1,"CCCn1c(=O)c2[nH]c(-c3cc(C(=O)O)n(C)n3)nc2n(CCC)c1=O [AS1, 1,3-di-n-propyl-8-(1-methyl-5-carboxy-1-H-pyrazol-3-yl)-xanthine]"
> 1,> 1,> 1,"CCCn1c(=O)c2[nH]c(-c3cc(NC(=O)CCC(=O)O)nn3C)nc2n(CCC)c1=O [AS8, 4-{[5-(1,3-dipropyl-2,6-dioxo-2,3,6,7-tetrahydro-1H-purin-8-yl)-1-methyl-1H-pyrazol-3-yl]amino}-4-oxobutanoic acid]"
> 1,> 1,> 1,"CCCn1c(=O)c2[nH]c(-c3cc(NC(=O)Cc4ccc(CC(C)C)cc4)nn3C)nc2n(CCC)c1=O [AS14, N-[5-(2,6-dioxo-1,3-dipropyl-2,3,6,9-tetrahydro-1H-purin-8-yl)-1-methyl-1H-pyrazol-3-yl]-2-(4-isobutylphenyl)acetamide]"
> 1,> 1,> 1,"CCCn1c(=O)c2[nH]c(-c3cc(NC(=O)[C@@H](C)c4ccccc4)nn3C)nc2n(CCC)c1=O [AS18, (2S)-N-[5-(2,6-dioxo-1,3-dipropyl-2,3,6,7-tetrahydro-1H-purin-8-yl)-1-methyl-1H-pyrazol-3-yl]-2-phenylpropanamide]"
> 1,> 1,> 1,"CCCn1c(=O)c2[nH]c(-c3cc(NC(=O)[C@H](C)c4ccccc4)nn3C)nc2n(CCC)c1=O [AS19, (2R)-N-[5-(2,6-dioxo-1,3-dipropyl-2,3,6,7-tetrahydro-1H-purin-8-yl)-1-methyl-1H-pyrazol-3-yl]-2-phenylpropanamide]"
1.63,> 1,> 1,"CCCn1c(=O)c2[nH]c(-c3cc(NC(=O)Cc4ccc(N(C)C)cc4)nn3C)nc2n(CCC)c1=O [AS26, N-[5-(2,6-dioxo-1,3-dipropyl-2,3,6,9-tetrahydro-1H-purin-8-yl)-1-methyl-1H-pyrazol-3-yl]-2-[4-(N,N-dimethylamino)phenyl]acetamide]"
0.569,> 1,> 1,"Cn1nc(NC(=O)Cc2ccccc2)cc1-c1nc2c([nH]1)c(=O)n(C)c(=O)n2C [AS40, N-[5-(2,6-dioxo-1,3-dimethyl-2,3,6,9-tetrahydro-1H-purin-8-yl)-1-methyl-1H-pyrazol-3-yl]-2-phenylacetamide]"
0.342,1.76,> 1,"CCCn1c(=O)c2[nH]c(-c3cc(NC(=O)Cc4ccc(O)c(OC)c4)nn3C)nc2n(CCC)c1=O [AS58, N-[5-(2,6-dioxo-1,3-dipropyl-2,3,6,9-tetrahydro-1H-purin-8-yl)-1-methyl-1H-pyrazol-3-yl]-2-(4-hydroxy-3-methoxyphenyl)acetamide]"
0.055,> 1,> 1,"CCCn1c(=O)c2[nH]c(-c3cc(OCC(=O)N4CCN(c5ccc(F)cc5)CC4)nn3C)nc2n(CCC)c1=O [AS72, 8-(5-{2-[4-(4-Fluoro-phenyl)-piperazin-1-yl]-2-oxo-ethoxy}-2-methyl-2H-pyrazol-3-yl)-1,3-dipropyl-3,7-dihydro-purine-2,6-dione]"
0.07,> 1,> 1,"CCCn1c(=O)c2[nH]c(-c3cc(OCC(=O)Nc4ccc(F)cc4)no3)nc2n(CCC)c1=O [AS73, 1,3-di-n-propyl-8-{3-[(4-fluoro-phenylcarbamoyl)-methoxy]-isoxazol-5-yl}-xanthine]"
0.053,> 1,> 1,"CCCn1c(=O)c2[nH]c(-c3cc(OCC(=O)Nc4ccc(OC)cc4)no3)nc2n(CCC)c1=O [AS75, 1,3-di-n-propyl-8-{3-[(4-methoxy-phenylcarbamoyl)-methoxy]-isoxazol-5-yl}-xanthine]"
0.051,> 1,> 1,"CCCn1c(=O)c2[nH]c(-c3cc(OCC(=O)Nc4ccc(OC)c(OC)c4)no3)nc2n(CCC)c1=O [AS76, 1,3-di-n-propyl-8-{3-[(3,4-dimethoxy-phenylcarbamoyl)-methoxy]-isoxazol-5-yl}-xanthine]"
0.108,> 1,> 1,"CCCn1c(=O)c2[nH]c(-c3ccc(OCC(=O)Nc4ccc(I)cc4)nc3)nc2n(CCC)c1=O [AS81, 1,3-di-n-propyl-8-{6-[(4-iodo-phenylcarbamoyl)-methoxy]-pyridin-3-yl}-xanthine]"
> 1,> 1,> 1,"CCCn1c(=O)c2[nH]c(-c3ccc(OCC(=O)Nc4ccc(I)cc4)nn3)nc2n(CCC)c1=O [AS85, 1,3-di-n-propyl-8-{6-[(4-iodo-phenylcarbamoyl)-methoxy]-pyridazin-3-yl}-xanthine]"
0.086,> 1,> 1,"CCCn1c(=O)c2[nH]c(-c3cc(OCC(=O)Nc4ccc(N5CCOCC5)cc4)nn3C)nc2n(CCC)c1=O [AS93, 1,3-di-n-propyl-8-{5-[(4-(morpholine-4-yl)-phenylcarbamoyl)-methoxy]-2-methyl-2H-pyrazole-3-yl}-xanthine]"
0.032,> 1,> 1,"CCCn1c(=O)c2[nH]c(-c3cc(OCC(=O)Nc4ccc(C(=O)OCC)cc4)nn3C)nc2n(CCC)c1=O [AS94, 1,3-di-n-propyl-8-{5-[(4-(ethoxycarbonyl)-phenylcarbamoyl)-methoxy]-2-methyl-2H-pyrazole-3-yl}-xanthine]"
0.036,> 1,> 1,"CCCn1c(=O)c2[nH]c(-c3cc(OCC(=O)Nc4ccc(C(=O)O)cc4)nn3C)nc2n(CCC)c1=O [AS95, 1,3-di-n-propyl-8-{5-[(4-carboxy-phenylcarbamoyl)-methoxy]-2-methyl-2H-pyrazole-3-yl}-xanthine]"
0.024,> 1,> 1,"C=CCn1c(=O)c2[nH]c(-c3cc(OCC(=O)N4CCN(c5ccccc5)CC4)nn3C)nc2n(CC=C)c1=O [AS96, 1,3-di-allyl-8-{5-[2-oxo-2-(4-phenyl-piperazin-1-yl)-ethoxy]-2-methyl-2H-pyrazole-3-yl}-xanthine]"
0.012,> 1,> 1,"CCCn1c(=O)c2[nH]c(-c3cc(OCC(=O)Nc4ccc(OC)c(OC)c4)nn3C)nc2n(CCC)c1=O [AS101, 1,3-di-n-propyl-8-{5-[(3,4-dimethoxy-phenylcarbamoyl)-methoxy]-2-methyl-2H-pyrazole-3-yl}-xanthine]"

SMILES,Ki [1] [µM],Ki [2] [µM],Ki [3] [µM]
"CCCn1c(=O)c2[nH]c(-c3cc(OCC(=O)N4CCN(C)CC4)nn3C)nc2n(CCC)c1=O [AS87, 1,3-di-n-propyl-8-{5-[2-Oxo-2-(4-methyl-piperazin-1-yl)-ethoxy]-2-methyl-2H-pyrazole-3-yl}-xanthine]",0.122,> 1,> 1
